Source: patent publication US6221676A, “DNA encoding human leukotriene C4 synthase, polypeptides and uses therefor” (Brigham and Women's Hospital, priority 1997, dated 2001)

Tests used:
LTC4 synthase = target: T1, LTC4 synthase (Homo sapiens, UniProt Q16873); test: Inhibition of LTC4 synthase activity (conversion of LTA4-ME to LTC4-ME) in lysates of transfected COS-7 cells; format: biochemical
T1 construct: expressed in transfected cells; host or cells: COS-7 (lysate of transfectants; cDNA from a KG-1 library in pcDNA3)
T1 sequence (Q16873 1-150): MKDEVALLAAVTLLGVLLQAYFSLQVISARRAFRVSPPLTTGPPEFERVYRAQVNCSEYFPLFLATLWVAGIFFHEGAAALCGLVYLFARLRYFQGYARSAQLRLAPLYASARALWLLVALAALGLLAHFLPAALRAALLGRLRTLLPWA
Experimental: HPLC was carried out with a model 126 dual pump system and model 167 scanning UV detector (Beckman Instruments) controlled by an IBM PS2/50 computer using Beckman System Gold software. Samples were applied to a 5-μm 4.6×250-mm C18 Ultrasphere reverse phase column (Beckman Instruments) equilibrated with a solvent of methanol/acetonitrile/water/acetic acid (10:15:100:0.2, v/v), pH 6.0 (solvent A). After injection of the sample, the column was eluted at a flow rate of 1 ml/min with a programmed concave gradient (System Gold curve 6) to 30% solvent A and 70% pure methanol (solvent B) over 0.2 min. After 2.8 min more, solvent B was increased linearly to 90% over 2 min and was maintained at this level for an additional 10 min. UV absorbance at 280 nm and the UV spectra were recorded simultaneously. The retention times for PGB2 and LTC4 -ME were 8.5 and 10.1 min, respectively. LTC4 -ME was quantitated by calculating the ratio of the peak area to the area of the internal standard PGB2.
Dose-Response Assay using MK886
Cell lysates of the COS-7 cell transfectant containing SEQ ID NO.: 1 were incubated with 20 micromolar LTA4 -ME, 20 mM GSH, 5 mM MgCl2 in HEPES buffer (pH 7.6), in the presence of 0-10 micromolar MK-886 for 10 minutes at room temperature. Reactions were stopped by addition of 2 volumes of methanol containing 200 ng PGB2. Samples were analyzed by RP-HPLC.
Lysates from transfected COS cells were analysed for LTC4, the product of conjugating reduced glutathione with 5,6-oxido-7,9-E-11,14-Z-eicosatetraenoic acid. […] At 10 μM, MK-886 inhibits more than 90% of the enzyme activity.

[1] = Conjugation of GSH to 1-chloro-2,4-dintrobenzene by purified LTC4 synthase fraction; format: biochemical; settings: fraction purified from native KG-1 cells
Text: Detergent-solubilize LTC4 synthase from 6×10^10 native KG-1 cells (using 0.4% deoxycholate, 0.4% Triton X-102, 10% glycerol) was purified by S-hexylglutathione-agarose chromatography using procedures adapted from Penrose et al., Proc. Nat. Acad. Sci., USA, 89:, above, followed by LTC2 affinity chromatography. Active fractions purified from the S-hexylglutathione-agarose column were combined, concentrated (Amicon, Danvers, Mass.) and then loaded onto an LTC2 affinity column equilibrated with buffer A and 0.1% Triton X-102. The column was washed with the same buffer and the enzyme was eluted with buffer A, containing 0.1% Triton X-102, 0.5 M NaCl and 5 mM reduced glutathione.
The LTC4 synthase activity contained a single 18-kDa protein by sodium dodecyl sulfate-polyacrylamide gel electrophoresis (NaDodSO4 -PAGE) with silver staining. […] A sample of the purified protein was concentrated and added to an equal volume of reducing buffer, and the mixture was boiled for 5 min. The reduced protein in this solution was bound to a polyvinylidene membrane by incubation overnight at 4° C. The bound protein was analyzed for N-terminal amino acid sequence by automated Edman degradation or was digested in situ with trypsin. Fernandez et al., Anal. Biochem., 201: 255-264 (1992). […]

C[C@H](C#Cc1ccc(Oc2ccc(F)cc2)o1)N(O)C(N)=O [A79175]
effect on LTC4 synthase activity (LTC4 synthase; at a concentration of 10 μM, COS cell lysates): did not affect LTC4 synthase activity

CC(C)c1ccc2c(c1)c(SC(C)(C)C)c(CC(C)(C)C(=O)O)n2Cc1ccc(Cl)cc1 [MK-886]
IC50 (LTC4 synthase; IC50, inhibition of conversion of LTA4-ME to LTC4-ME, 20 uM LTA4-ME, COS cell lysates, dose-dependent, 10 minutes, room temperature): < 3 µM
IC50 (LTC4 synthase; ID50, inhibition of LTC4 synthase activity, transfected COS cell lysates, dose-related (Discussion)): ~3 µM
inhibition at 10 µM (LTC4 synthase; read-out: inhibition of the enzyme activity): > 90%

B1: LTC4 synthase: 150-amino acid residue integral membrane protein with three hydrophobic transmembrane domains (protein, UniProt Q16873 1-150, looked up)
Leukotriene C4 synthase: MKDEVALLAAVTLLGVLLQAYFSLQVISARRAFRVSPPLTTGPPEFERVYRAQVNCSEYFPLFLATLWVAGIFFHEGAAALCGLVYLFARLRYFQGYARSAQLRLAPLYASARALWLLVALAALGLLAHFLPAALRAALLGRLRTLLPWA
conjugation of GSH to 1-chloro-2,4-dintrobenzene [1]: did not conjugate GSH to 1-chloro-2,4-dintrobenzene
